Measurements published in article PMC10005332, “It Takes Two to Tango, Part II: Synthesis of A-Ring Functionalised Quinones Containing Two Redox-Active Centres with Antitumour Activities” (Molecules, 2023).
pIC50: −log10 of the molar value. Read-outs that look alike come from different tables or passages of the source.

Key:
[1] = test system: HCT-116 (human colorectal carcinoma); assay: MTT cytotoxicity assay, HCT-116; format: cell-based; settings: for pIC50: Homo sapiens, HCT-116, 72 h, MTT, 72 h exposure, three independent experiments, read-out: Cytotoxic activity IC50 (95% CI) HCT-116; for Selectivity index HCT-116: ratio of cytotoxicity L929 / HCT-116
Procedure: (§1) In this study, the IC50 was obtained in micromolar concentrations, using the colourimetric MTT (3-(4,5-dimethylthiazol-2-yl)-2,5-diphenyl tetrazolium bromide)) assay, and doxorubicin was used as the positive control. […] The activity against the non-tumoural murine fibroblast cell line L929 was also evaluated in order to study the cytotoxicity behaviour of each compound and to understand their respective relative selectivity. The selectivity index was obtained using the ratio of measured cytotoxicity between the L929 cell line and each of the cancer cell lines, and the results are presented in Table 2.
(§2) The in vitro cytotoxicity activity of the compounds was evaluated by the colorimetric MTT (3-(4,5-dimethylthiazol-2-yl)-2,5-diphenyl tetrazolium bromide)) assay using the following tumor cell lines: HCT-116 (colon carcinoma), PC3 (prostate), SNB-19 (glioblastoma), K-562 (myelogenous leukaemia), HL-60 (human promyelocytic leukaemia), B16 (murine melanoma), A549 (human lung carcinoma), KG1 (human acute myeloid leukaemia), and RAJI (human Burkitt’s lymphoma), which were provided by the National Cancer Institute (Bethesda, MD, USA). The L929 cell line (mouse fibroblast L cells NCTC clone 929) employed in this study as a control cell line was obtained from the American Type Culture Collection (Manassas, VA, USA). The cell lines (Table S4) were maintained in flasks containing RPMI 1640 or DMEM medium supplemented with 10% bovive fetal sérum, 100 U/mL penicillin, and 100 μg/mL streptomycin at 37 °C and in 5% CO2 atmosphere. The compounds tested were dissolved in DMSO. Doxorubicin served as the positive control. Cell treatments were performed with three replicates and the cells were mycoplasma free. After 72 h incubation, 100 μL of MTT solution (0.5 mg/mL) was added to each well, and the cells were incubated for 3 h. The supernatant was removed and 100 μL of DMSO was added and the absorbance at 595 nm was measured using Victor Nivo Multimode plate reader (PerkinElmer, Waltham, MA, USA). The absorbances obtained were used to calculate the IC50 values by nonlinear regression employing appropriate statistical software.
(§3) The in vitro cytotoxicity activity of compounds was evaluated by the colorimetric MTT (3-(4,5-dimethylthiazol-2-yl)-2,5-diphenyl tetrazolium bromide)) assay using tumor cell lines: HCT-116 (colon carcinoma), PC3 (prostate), SNB-19 (glioblastoma), K-562 (myelogenous leukaemia), HL-60 (human promyelocytic leukaemia), B16 (murine melanoma), A549 (human lung carcinoma), KG1 (human acute myeloid leukaemia) and RAJI (human Burkitt's lymphoma), which were provided by the National Cancer Institute (Bethesda, MD, USA). The L929 cell line (mouse fibroblast L cells NCTC clone 929) employed in this study as a control cell line was obtained from the American Type Culture […]
(§4) Collection (Manassas, VA, USA). Cell lines (Table 01) were maintained in flasks containing RPMI 1640 or DMEM medium supplemented with 10% bovive fetal sérum, 100 U/mL penicillin, and 100 μg/mL streptomycin at 37 °C and 5% CO2 atmosphere.
(§5) Compounds tested were dissolved in DMSO. Doxorubicin served as positive control. Cell treatments were performed with three replicates and cells were mycoplasma-free. After 72 h incubation, 100 μL of MTT solution (0.5 mg/mL) was added to each well, and cells were incubated for 3 h. The supernatant was removed and 100 μL of DMSO was added and the absorbance at 595 nm was measured using Victor Nivo Multimode plate reader

[2] = test system: PC3 (human prostate adenocarcinoma); assay: MTT cytotoxicity assay, PC3; format: cell-based; settings: for pIC50: Homo sapiens, MTT, 72 h exposure, three independent experiments, read-out: Cytotoxic activity IC50 (95% CI) PC3; for Selectivity index PC3: ratio of cytotoxicity L929 / PC3
Procedure: as §1, §2, §3, §4, §5

[3] = test system: SNB-19 (human astrocytoma); assay: MTT cytotoxicity assay, SNB-19; format: cell-based; settings: for pIC50: Homo sapiens, SNB-19, MTT, 72 h exposure, three independent experiments, read-out: Cytotoxic activity IC50 (95% CI) SNB-19; for Selectivity index SNB-19: ratio of cytotoxicity L929 / SNB-19
Procedure: as §1, §2, §3, §4, §5

[4] = test system: K-562 (human chronic myeloid leukaemia); assay: MTT cytotoxicity assay, K-562; format: cell-based; settings: for pIC50: Homo sapiens, K562, MTT, 72 h exposure, three independent experiments, read-out: Cytotoxic activity IC50 (95% CI) K-562; for Selectivity index K-562: ratio of cytotoxicity L929 / K-562
Procedure: as §1, §2, §3, §4, §5

[5] = test system: HL60 (human pro-myelocytic leukaemia); assay: MTT cytotoxicity assay, HL60; format: cell-based; settings: for pIC50: MTT, 72 h exposure, three independent experiments, read-out: Cytotoxic activity IC50 (95% CI) HL60; for Selectivity index HL60: ratio of cytotoxicity L929 / HL60
Procedure: as §1, §2, §3, §4, §5

B16 (murine melanoma) = assay: MTT cytotoxicity assay, B16; format: cell-based; settings: for pIC50: Mus musculus, MTT, 72 h exposure, three independent experiments, read-out: Cytotoxic activity IC50 (95% CI) B16; for Selectivity index B16: ratio of cytotoxicity L929 / B16
Procedure: as §1, §2, §3, §4, §5

[6] = test system: A549 (human lung carcinoma); assay: MTT cytotoxicity assay, A549; format: cell-based; settings: for pIC50: Homo sapiens, A549, MTT, 72 h exposure, three independent experiments, read-out: Cytotoxic activity IC50 (95% CI) A549; for Selectivity index A549: ratio of cytotoxicity L929 / A549
Procedure: as §1, §2, §3, §4, §5

[7] = test system: KG1 (human acute myeloid leukaemia); assay: MTT cytotoxicity assay, KG1; format: cell-based; settings: for pIC50: Homo sapiens, MTT, 72 h exposure, three independent experiments, read-out: Cytotoxic activity IC50 (95% CI) KG1; for Selectivity index KG1: ratio of cytotoxicity L929 / KG1
Procedure: as §1, §2, §3, §4, §5

[8] = test system: RAJI (human Burkitt’s lymphoma); assay: MTT cytotoxicity assay, RAJI; format: cell-based; settings: for pIC50: Homo sapiens, Raji, 72 h, MTT, 72 h exposure, three independent experiments, read-out: Cytotoxic activity IC50 (95% CI) RAJI; for Selectivity index RAJI: ratio of cytotoxicity L929 / RAJI
Procedure: as §1, §2, §3, §4, §5

[9] = MTT cytotoxicity assay, L929 control line; format: cell-based, mouse; settings: mouse, L929 fibroblast cells (non-tumoral control line), 72 h exposure, read-out: Cytotoxic activity IC50 (95% CI) L929
Procedure: as §1, §2, §3, §4, §5

SMILES	pIC50 [1]	Selectivity index HCT-116 [1]	pIC50 [2]	Selectivity index PC3 [2]	pIC50 [3]	Selectivity index SNB-19 [3]	pIC50 [4]	Selectivity index K-562 [4]	pIC50 ([5]; Homo sapiens, HL-60, 72 h)	Selectivity index HL60 [5]	pIC50 (B16 (murine melanoma))	Selectivity index B16 (B16 (murine melanoma))	pIC50 [6]	Selectivity index A549 [6]	pIC50 [7]	Selectivity index KG1 [7]	pIC50 [8]	Selectivity index RAJI [8]	IC50 at 72 h [9]	pIC50 [5]
CC1(C)OC2=C(C(=O)C(=O)c3ccccc32)C1n1cc(CNC2=CC(=O)c3c(O)cccc3C2=O)nn1 (stereo not shown) [Compound 19b, 3-(4-(((5-hydroxy-1,4-dioxo-1,4-dihydronaphthalen-2-yl)amino)methyl)-1H-1,2,3-triazol-1-yl)-2,2-dimethyl-2,3-dihydronaphtho[1,2-b]furan-4,5-dione]	5.77	3.5	5.50	1.9	5.47	1.8	5.50	1.9	6.00	6.0	5.45	1.7	5.50	1.9	5.28	1.1	5.59	2.3	5.97 µM	
CC1(C)OC2=C(C(=O)C(=O)c3ccccc32)C1N=[N+]=[N-] (stereo not shown) [Compound 4, 3-azido-2,2-dimethyl-2,3-dihydronaphtho[1,2-b]furan-4,5-dione]	5.71	1.4	5.23	0.5	5.68	1.3	5.85	1.9	5.97	2.5	5.75	1.5	5.44	0.8	5.22	0.5	5.61	1.1	2.74 µM	
CC1(C)OC2=C(CC1Cn1cc(CNC3=CC(=O)c4cc5ccccc5cc4C3=O)nn1)C(=O)C(=O)c1ccccc12 (stereo not shown) [Compound 21e, 3-((4-(((1,4-dioxo-1,4-dihydroanthracen-2-yl)amino)methyl)-1H-1,2,3-triazol-1-yl)methyl)-2,2-dimethyl-3,4-dihydro-2H-benzo[h]chromene-5,6-dione]	5.76	1.0	5.54	0.6	5.88	1.3	5.43	0.5	6.30	6.6	5.54	0.6	6.06	1.9	5.38	0.4	5.17	0.3	1.71 µM	6.59
O=C1C(=O)c2ccccc2C2=C1CC(Cn1cc(CNC3=CC(=O)c4cccc(OCc5ccccc5)c4C3=O)nn1)O2 (stereo not shown) [Compound 20d, 2-((4-(((8-benzyloxy-1,4-dioxo-1,4-dihydronaphthalen-2-yl)amino)methyl)-1H-1,2,3-triazol-1-yl)methyl)-2,3-dihydronaphtho[1,2-b]furan-4,5-dione]	5.21	1.5	4.89	0.7	4.99	0.9	4.98	0.9	5.43	2.5	5.04	1.0	4.56	0.3	5.05	1.1	5.36	2.2	9.43 µM	
COc1cccc2c1C(=O)C(NCc1cn(CC3CC4=C(OC3(C)C)c3ccccc3C(=O)C4=O)nn1)=CC2=O (stereo not shown) [Compound 21c, 3-((4-(((8-methoxy-1,4-dioxo-1,4-dihydronaphthalen-2-yl)amino)methyl)-1H-1,2,3-triazol-1-yl)methyl)-2,2-dimethyl-3,4-dihydro-2H-benzo[h]chromene-5,6-dione]	5.31	1.2	5.29	1.1	5.31	1.1	5.28	1.1	5.64	2.5	5.34	1.2	5.32	1.2	5.88	4.2	5.91	4.6	5.6 µM	
CC1(C)OC2=C(C(=O)C(=O)c3ccccc32)C1n1cc(CNC2=CC(=O)c3c(I)cccc3C2=O)nn1 (stereo not shown) [Compound 19a, 3-(4-(((5-iodo-1,4-dioxo-1,4-dihydronaphthalen-2-yl)amino)methyl)-1H-1,2,3-triazol-1-yl)-2,2-dimethyl-2,3-dihydronaphtho[1,2-b]furan-4,5-dione]	6.00	1.2	5.44	0.3	6.00	1.2	5.92	1.0	6.36	2.8	5.73	0.6	5.59	0.5	5.86	0.9	5.69	0.6	1.21 µM	
